# Measurements reported in the supplement of paper PMC10307832.
# What was measured:
# Assay in all cases: relative viability (nuclei count vs DMSO), 5 days (fraction); higher = more cells survive
# [1] = system: A-427
# Procedure, shortened: (§1)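 Medians of duplicate plates are given as relative viability. That measure is the nuclei count in treated wells divided by the count in vehicle wells. Counts were taken on 4× images of lung cancer cell lines in 1536-well plates, 5 days after pin-tool dosing the day after seeding with one drug alone or a fixed anchor-drug dose plus five library-drug doses (not always all listed) in √10 steps.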
# [2] = system: CAL-12T
# Procedure, shortened: as §1
# [3] = system: COR-L 105
# Procedure, shortened: as §1
# [4] = system: EMC-BAC-2
# Procedure, shortened: as §1
# [5] = system: HARA
# Procedure, shortened: as §1
# [6] = system: HCC-366
# Procedure, shortened: as §1
# [7] = system: HCC-827
# Procedure, shortened: as §1
# [8] = system: HOP-62
# Procedure, shortened: as §1
# [9] = system: LCLC-103H
# Procedure, shortened: as §1
# [10] = system: NCI-H1355
# Procedure, shortened: as §1
# [11] = system: NCI-H1395
# Procedure, shortened: as §1
# [12] = system: NCI-H1437
# Procedure, shortened: as §1
# [13] = system: NCI-H1755
# Procedure, shortened: as §1
# [14] = system: NCI-H1792
# Procedure, shortened: as §1
# [15] = system: NCI-H1915
# Procedure, shortened: as §1
# [16] = system: NCI-H1975
# Procedure, shortened: as §1
# [17] = system: NCI-H2009
# Procedure, shortened: as §1
# [18] = system: NCI-H2228
# Procedure, shortened: as §1
# [19] = system: NCI-H23
# Procedure, shortened: as §1
# [20] = system: NCI-H460
# Procedure, shortened: as §1
# [21] = system: NCI-H522
# Procedure, shortened: as §1
# [22] = system: NCI-H727
# Procedure, shortened: as §1
# [23] = system: SK-LU-1
# Procedure, shortened: as §1
# [24] = system: SW 1573
# Procedure, shortened: as §1
structure (smiles),measurement,setting,value
COc1cc(N2CCC(C(N)=O)CC2)ccc1Nc1nc(N)c(Cl)c(Nc2ccccc2S(=O)(=O)C(C)C)n1 [HG-5-88-01] + CC(=O)c1c(C)c2cnc(Nc3ccc(N4CCNCC4)cn3)nc2n(C2CCCC2)c1=O [Palbociclib] (partner 0.5 µM),relative viability,[1]; first compound 0.04 µM,0.536
same,relative viability,[1]; first compound 0.1265 µM,0.541
same,relative viability,[1]; first compound 0.4 µM,0.541
same,relative viability,[1]; first compound 1.265 µM,0.517
same,relative viability,[1]; first compound 4 µM,0.463
same,relative viability,[2]; first compound 0.04 µM,0.509
same,relative viability,[2]; first compound 0.1265 µM,0.552
same,relative viability,[2]; first compound 0.4 µM,0.405
same,relative viability,[2]; first compound 1.265 µM,0.214
same,relative viability,[2]; first compound 4 µM,0.211
same,relative viability,[3]; first compound 0.04 µM,0.398
same,relative viability,[3]; first compound 0.1265 µM,0.419
same,relative viability,[3]; first compound 0.4 µM,0.459
same,relative viability,[3]; first compound 1.265 µM,0.403
same,relative viability,[3]; first compound 4 µM,0.394
same,relative viability,[4]; first compound 0.04 µM,0.516
same,relative viability,[4]; first compound 0.1265 µM,0.543
same,relative viability,[4]; first compound 0.4 µM,0.48
same,relative viability,[4]; first compound 1.265 µM,0.405
same,relative viability,[4]; first compound 4 µM,0.438
same,relative viability,[5]; first compound 0.04 µM,0.234
same,relative viability,[5]; first compound 0.1265 µM,0.177
same,relative viability,[5]; first compound 0.4 µM,0.2
same,relative viability,[5]; first compound 1.265 µM,0.218
same,relative viability,[5]; first compound 4 µM,0.253
same,relative viability,[6]; first compound 0.04 µM,0.397
same,relative viability,[6]; first compound 0.1265 µM,0.41
same,relative viability,[6]; first compound 0.4 µM,0.356
same,relative viability,[6]; first compound 1.265 µM,0.41
same,relative viability,[6]; first compound 4 µM,0.465
same,relative viability,[7]; first compound 0.04 µM,0.583
same,relative viability,[7]; first compound 0.1265 µM,0.459
same,relative viability,[7]; first compound 0.4 µM,0.425
same,relative viability,[7]; first compound 1.265 µM,0.197
same,relative viability,[7]; first compound 4 µM,0.33
same,relative viability,[8]; first compound 0.04 µM,0.428
same,relative viability,[8]; first compound 0.1265 µM,0.54
same,relative viability,[8]; first compound 0.4 µM,0.456
same,relative viability,[8]; first compound 1.265 µM,0.501
same,relative viability,[8]; first compound 4 µM,0.608
same,relative viability,[9]; first compound 0.04 µM,0.48
same,relative viability,[9]; first compound 0.1265 µM,0.48
same,relative viability,[9]; first compound 0.4 µM,0.443
same,relative viability,[9]; first compound 1.265 µM,0.504
same,relative viability,[9]; first compound 4 µM,0.445
same,relative viability,[10]; first compound 0.04 µM,0.4
same,relative viability,[10]; first compound 0.1265 µM,0.394
same,relative viability,[10]; first compound 0.4 µM,0.426
same,relative viability,[10]; first compound 1.265 µM,0.338
same,relative viability,[10]; first compound 4 µM,0.362
same,relative viability,[11]; first compound 0.04 µM,0.593
same,relative viability,[11]; first compound 0.1265 µM,0.754
same,relative viability,[11]; first compound 0.4 µM,0.613
same,relative viability,[11]; first compound 1.265 µM,0.474
same,relative viability,[11]; first compound 4 µM,0.664
same,relative viability,[12]; first compound 0.04 µM,0.372
same,relative viability,[12]; first compound 0.1265 µM,0.299
same,relative viability,[12]; first compound 0.4 µM,0.271
same,relative viability,[12]; first compound 1.265 µM,0.28
same,relative viability,[12]; first compound 4 µM,0.243
same,relative viability,[13]; first compound 0.04 µM,0.42
same,relative viability,[13]; first compound 0.1265 µM,0.494
same,relative viability,[13]; first compound 0.4 µM,0.485
same,relative viability,[13]; first compound 1.265 µM,0.419
same,relative viability,[13]; first compound 4 µM,0.455
same,relative viability,[14]; first compound 0.04 µM,0.74
same,relative viability,[14]; first compound 0.1265 µM,0.675
same,relative viability,[14]; first compound 0.4 µM,0.623
same,relative viability,[14]; first compound 4 µM,0.614
same,relative viability,[15]; first compound 0.04 µM,0.592
same,relative viability,[15]; first compound 0.1265 µM,0.559
same,relative viability,[15]; first compound 0.4 µM,0.588
same,relative viability,[15]; first compound 1.265 µM,0.565
same,relative viability,[15]; first compound 4 µM,0.502
same,relative viability,[16]; first compound 0.04 µM,0.597
same,relative viability,[16]; first compound 0.1265 µM,0.643
same,relative viability,[16]; first compound 0.4 µM,0.464
same,relative viability,[16]; first compound 1.265 µM,0.538
same,relative viability,[16]; first compound 4 µM,0.425
same,relative viability,[17]; first compound 0.04 µM,0.187
same,relative viability,[17]; first compound 0.1265 µM,0.281
same,relative viability,[17]; first compound 0.4 µM,0.242
same,relative viability,[17]; first compound 1.265 µM,0.216
same,relative viability,[17]; first compound 4 µM,0.224
same,relative viability,[18]; first compound 0.04 µM,0.388
same,relative viability,[18]; first compound 0.1265 µM,0.388
same,relative viability,[18]; first compound 0.4 µM,0.319
same,relative viability,[18]; first compound 1.265 µM,0.247
same,relative viability,[18]; first compound 4 µM,0.231
same,relative viability,[19]; first compound 0.04 µM,0.507
same,relative viability,[19]; first compound 0.1265 µM,0.549
same,relative viability,[19]; first compound 0.4 µM,0.545
same,relative viability,[19]; first compound 1.265 µM,0.378
same,relative viability,[19]; first compound 4 µM,0.263
same,relative viability,[20]; first compound 0.04 µM,0.171
same,relative viability,[20]; first compound 0.1265 µM,0.155
same,relative viability,[20]; first compound 0.4 µM,0.0931
same,relative viability,[20]; first compound 1.265 µM,0.247
same,relative viability,[20]; first compound 4 µM,0.274
same,relative viability,[21]; first compound 0.04 µM,1.06
same,relative viability,[21]; first compound 0.1265 µM,1.03
same,relative viability,[21]; first compound 0.4 µM,1.01
same,relative viability,[21]; first compound 1.265 µM,0.829
same,relative viability,[21]; first compound 4 µM,0.851
same,relative viability,[22]; first compound 0.04 µM,0.677
same,relative viability,[22]; first compound 0.1265 µM,0.629
same,relative viability,[22]; first compound 0.4 µM,0.66
same,relative viability,[22]; first compound 4 µM,0.61
same,relative viability,[23]; first compound 0.04 µM,0.363
same,relative viability,[23]; first compound 0.1265 µM,0.422
same,relative viability,[23]; first compound 0.4 µM,0.505
same,relative viability,[23]; first compound 1.265 µM,0.329
same,relative viability,[23]; first compound 4 µM,0.332
same,relative viability,[24]; first compound 0.04 µM,0.412
same,relative viability,[24]; first compound 0.1265 µM,0.369
same,relative viability,[24]; first compound 0.4 µM,0.337
same,relative viability,[24]; first compound 1.265 µM,0.257
same,relative viability,[24]; first compound 4 µM,0.277
